Data as given in paper PMC8966664 (Frontiers in Pharmacology, 2022).

Assays:
[1] = system: rat liver microsomes; experiment: Formation of 7,9-diGS-DHP from RTS in rat liver microsomes; type: biochemical; details: KCZ 25 µM; 1 mg/ml rat liver microsomes, 200 µM RTS
Protocol: The injection volume was 3 μL. […] The injection volume was 5 µL.

[2] = system: bacterial ß-D-glucuronidase; design: method as in Takeda et al., 1996; details: gastrointestinal tract, after oral administration; ref Takeda et al., 1996; cited from earlier work
[3] = target: T1, CYP2D1 (Rattus norvegicus, UniProt P10633); design: method as in Otten et al., 2011; details: CYP enzyme 2D1; cocktail probe substrate parameter, source not stated; ref Otten et al., 2011; cited from earlier work
T1 construct: and 1 mg/ml rat liver microsomes; from tissue; host or cells: rat liver microsomes
T1 sequence (P10633 1-504): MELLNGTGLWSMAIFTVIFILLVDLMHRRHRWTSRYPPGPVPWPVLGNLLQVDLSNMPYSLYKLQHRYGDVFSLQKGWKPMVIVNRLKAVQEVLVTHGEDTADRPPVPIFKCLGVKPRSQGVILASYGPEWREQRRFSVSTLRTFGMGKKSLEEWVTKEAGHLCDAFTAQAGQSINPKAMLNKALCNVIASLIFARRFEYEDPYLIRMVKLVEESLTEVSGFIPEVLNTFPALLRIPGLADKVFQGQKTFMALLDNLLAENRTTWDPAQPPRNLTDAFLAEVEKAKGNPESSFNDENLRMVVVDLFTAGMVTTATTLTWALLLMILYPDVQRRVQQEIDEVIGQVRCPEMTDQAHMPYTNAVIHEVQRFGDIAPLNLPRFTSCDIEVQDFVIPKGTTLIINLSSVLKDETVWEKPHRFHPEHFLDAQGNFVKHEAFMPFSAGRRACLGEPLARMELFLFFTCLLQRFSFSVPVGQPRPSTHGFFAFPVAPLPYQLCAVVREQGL

[4] = system: CYP1A2; details: CYP enzyme 1A2; cocktail probe substrate parameter, source not stated; ref Otten et al., 2011; cited from earlier work
[5] = target: T2, CYP2A2 (Rattus norvegicus, UniProt P15149); design: method as in Otten et al., 2011; details: CYP enzyme 2A2; cocktail probe substrate parameter, source not stated; ref Otten et al., 2011; cited from earlier work
T2 construct: and 1 mg/ml rat liver microsomes; from tissue; host or cells: rat liver microsomes
T2 sequence (P15149 whole entry): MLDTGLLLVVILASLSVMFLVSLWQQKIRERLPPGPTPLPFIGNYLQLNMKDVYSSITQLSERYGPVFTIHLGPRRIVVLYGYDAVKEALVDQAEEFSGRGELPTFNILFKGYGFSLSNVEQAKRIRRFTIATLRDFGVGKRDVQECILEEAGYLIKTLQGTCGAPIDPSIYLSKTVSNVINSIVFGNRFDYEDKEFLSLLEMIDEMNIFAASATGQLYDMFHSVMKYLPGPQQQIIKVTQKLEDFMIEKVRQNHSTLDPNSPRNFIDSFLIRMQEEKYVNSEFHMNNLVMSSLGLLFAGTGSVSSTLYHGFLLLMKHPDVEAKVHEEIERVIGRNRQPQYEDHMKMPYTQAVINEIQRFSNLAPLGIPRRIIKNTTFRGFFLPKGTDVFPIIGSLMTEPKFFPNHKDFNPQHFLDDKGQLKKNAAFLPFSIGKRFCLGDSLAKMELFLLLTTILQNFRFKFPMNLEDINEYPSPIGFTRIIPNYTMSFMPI

[6] = target: T3, CYP2B2 (Rattus norvegicus, UniProt P04167); design: method as in Otten et al., 2011; details: CYP enzyme 2B2; cocktail probe substrate parameter, source not stated; ref Otten et al., 2011; cited from earlier work
T3 construct: and 1 mg/ml rat liver microsomes; from tissue; host or cells: rat liver microsomes
T3 sequence (P04167 1-491): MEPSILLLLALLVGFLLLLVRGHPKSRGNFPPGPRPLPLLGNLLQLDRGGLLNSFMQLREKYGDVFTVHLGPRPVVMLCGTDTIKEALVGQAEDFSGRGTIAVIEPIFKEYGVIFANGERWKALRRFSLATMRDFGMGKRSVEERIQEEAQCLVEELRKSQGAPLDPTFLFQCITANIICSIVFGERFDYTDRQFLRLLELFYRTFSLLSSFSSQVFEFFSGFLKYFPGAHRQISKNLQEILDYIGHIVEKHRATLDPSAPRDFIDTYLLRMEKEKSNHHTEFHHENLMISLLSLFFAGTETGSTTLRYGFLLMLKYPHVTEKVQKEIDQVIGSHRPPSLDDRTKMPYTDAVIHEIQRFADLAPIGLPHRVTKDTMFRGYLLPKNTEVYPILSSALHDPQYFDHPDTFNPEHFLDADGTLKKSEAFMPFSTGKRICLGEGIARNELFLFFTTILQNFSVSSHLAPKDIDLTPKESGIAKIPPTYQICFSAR

[7] = target: T4, CYP2C11 (Rattus norvegicus, UniProt P08683); design: method as in Otten et al., 2011; details: CYP enzyme 2C11; cocktail probe substrate parameter, source not stated; ref Otten et al., 2011; cited from earlier work
T4 construct: and 1 mg/ml rat liver microsomes; from tissue; host or cells: rat liver microsomes
T4 sequence (P08683 1-500): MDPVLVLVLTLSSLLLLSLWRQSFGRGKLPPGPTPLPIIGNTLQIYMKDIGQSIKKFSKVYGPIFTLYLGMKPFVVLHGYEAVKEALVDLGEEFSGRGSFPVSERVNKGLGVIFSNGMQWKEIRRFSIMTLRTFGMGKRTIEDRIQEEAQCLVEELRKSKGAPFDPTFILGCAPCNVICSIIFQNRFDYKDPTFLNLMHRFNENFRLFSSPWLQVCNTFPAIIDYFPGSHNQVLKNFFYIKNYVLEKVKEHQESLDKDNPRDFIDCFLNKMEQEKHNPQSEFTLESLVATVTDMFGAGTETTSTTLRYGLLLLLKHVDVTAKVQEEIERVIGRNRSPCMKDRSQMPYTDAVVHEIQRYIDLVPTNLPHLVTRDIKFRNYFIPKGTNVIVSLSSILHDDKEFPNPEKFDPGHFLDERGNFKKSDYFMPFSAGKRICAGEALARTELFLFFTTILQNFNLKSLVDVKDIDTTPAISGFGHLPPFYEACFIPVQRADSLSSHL

## CC(=O)N1CCN(c2ccc(OCC3COC(Cn4ccnc4)(c4ccc(Cl)cc4Cl)O3)cc2)CC1 (stereo not shown) [KCZ, ketoconazole]
[1]
  reduction of the formation of 7,9-diGS-DHP: 62%

## CC1(C)[C@@H](O[C@H]2O[C@H](C(=O)O)[C@@H](O)[C@H](O)[C@H]2O[C@@H]2O[C@H](C(=O)O)[C@@H](O)[C@H](O)[C@H]2O)CC[C@]2(C)[C@H]3C(=O)C=C4[C@@H]5C[C@@](C)(C(=O)O)CC[C@]5(C)CC[C@@]4(C)[C@]3(C)CC[C@@H]12 [GL, Glycyrrhizin]
[2]
  fraction of GL irreversibly transformed into 18β-GA: ~100%

## COc1ccc2c(c1)[C@]13CCCC[C@@H]1[C@H](C2)N(C)CC3 [Dextromethorphan]
[3]
  Km: 0.4 to 8.5 µM

## CCOc1ccc(NC(C)=O)cc1 [Phenacetin]
[4]
  Km: 1.7 to 152 µM

## O=c1ccc2ccccc2o1 [Coumarin]
[5]
  Km: 0.3 to 2.3 µM

## CC(NC(C)(C)C)C(=O)c1cccc(Cl)c1 (stereo not shown) [Bupropion]
[6]
  Km: 67 to 168 µM

## CC[C@@]1(c2ccccc2)NC(=O)N(C)C1=O [S-Mephenytoin]
[7]
  Km: 13 to 35 µM
